Test results as given in ChEMBL document CHEMBL1131266, “Synthesis and pharmacological evaluation of new flosulide analogues, synthesized from natural safrole” (1998).

Assays:
Rattus norvegicus [1] = experiment: Percent inhibition of edema in carrageenan-induced rat paw edema was determined by comparing with vehicle control group when tested on 14 rats at peroral dose of 100 umol/Kg; Not significant; assay type: functional; details: po
Rattus norvegicus [2] = experiment: Percent inhibition of pleural inflammation in carrageenan-induced rat model was determined by comparing with vehicle control group when tested on 5 rats at peroral dose of 100 umol/Kg; assay type: functional; details: po
Rattus norvegicus [3] = experiment: Percent inhibition of edema in carrageenan-induced rat paw edema was determined by comparing with vehicle control group when tested on 5 rats at peroral dose of 100 umol/Kg; assay type: functional; details: po
Rattus norvegicus [4] = experiment: Percent inhibition of edema in carrageenan-induced rat paw edema was determined by comparing with vehicle control group when tested on 10 rats at peroral dose of 100 umol/Kg; assay type: functional; details: po
Rattus norvegicus [5] = experiment: Percent inhibition of pleural inflammation in carrageenan-induced rat model was determined by comparing with vehicle control group when tested on 10 rats at peroral dose of 100 umol/Kg; assay type: functional; details: po
Rattus norvegicus [6] = organism: Rattus norvegicus; experiment: animal or person; details: po, read-out: Inhibition
Description: Percent inhibition of pleural inflammation in carrageenan-induced rat model was determined by comparing with vehicle control group when tested on 8 rats at peroral dose of 100 umol/Kg

SMILES | inhibition in vivo at 100 µmol/kg (Rattus norvegicus [2]) [%] | inhibition in vivo at 100 µmol/kg (Rattus norvegicus [3]) [%] | other results
CNS(=O)(=O)c1cc2c(cc1Cc1ccccc1)OCO2 | 46 | – | inhibition in vivo at 100 µmol/kg (Rattus norvegicus [1]): 2.7%
CS(=O)(=O)Nc1cc2c(cc1Cc1cccc(C(F)(F)F)c1)OCO2 | 24.6 | 19.7 | –
CS(=O)(=O)Nc1cc2c(cc1Cc1ccccc1)OCO2 | 43.1 | – | inhibition in vivo at 100 µmol/kg (Rattus norvegicus [4]): 21%
O=S(=O)(Nc1ccccc1)c1cc2c(cc1Cc1ccccc1)OCO2 | 24.6 | 27.2 | –
COc1ccc2c(c1)c(CC(=O)O)c(C)n2C(=O)c1ccc(Cl)cc1 [INDOMETHACIN] | – | 85.4 | inhibition in vivo at 100 µmol/kg (Rattus norvegicus [5]): 31.7%
CS(=O)(=O)Nc1ccc([N+](=O)[O-])cc1Oc1ccccc1 [NIMESULIDE] | – | 61.7 | inhibition in vivo at 100 µmol/kg (Rattus norvegicus [6]): 29.9%
